# The supplement of paper PMC10307832
# Assays:
# Test in all cases: relative viability (nuclei count vs DMSO), 5 days (fraction); higher = more cells survive
# [1] = compound: CN[C@@H]1C[C@H]2O[C@@](C)([C@@H]1OC)n1c3ccccc3c3c4c(c5c6ccccc6n2c5c31)C(=O)NC4 [Staurosporine] + Nc1nc2[nH]cc(CCc3ccc(C(=O)N[C@@H](CCC(=O)O)C(=O)O)cc3)c2c(=O)[nH]1 [Pemetrexed] (partner 0.2 µM)
# Procedure, shortened: (§1)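 Dosing by pin tool came one day after lung cancer cell lines were seeded in 1536-well plates, using either one drug or a fixed anchor-drug dose plus five library-drug doses (not always all listed) in √10 steps. After 5 days, nuclei were counted on 4× images. Relative viability is treated-well nuclei count divided by vehicle-well nuclei count, and values are medians of duplicate plates.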
# [2] = compound: O=c1[nH]cc(F)c(=O)[nH]1 [5-Fluorouracil] + Nc1nc2[nH]cc(CCc3ccc(C(=O)N[C@@H](CCC(=O)O)C(=O)O)cc3)c2c(=O)[nH]1 [Pemetrexed] (partner 0.2 µM)
# Procedure, shortened: as §1
# Sulindac + Tozasertib = compound: CC1=C(CC(=O)O)c2cc(F)ccc2/C1=C\c1ccc([S+](C)[O-])cc1 [Sulindac] + Cc1cc(Nc2cc(N3CCN(C)CC3)nc(Sc3ccc(NC(=O)C4CC4)cc3)n2)n[nH]1 [Tozasertib] (partner 0.1 µM)
# Procedure, shortened: as §1
# [3] = compound: O=c1[nH]cc(F)c(=O)[nH]1 [5-Fluorouracil] + Cc1nc(Nc2ncc(C(=O)Nc3c(C)cccc3Cl)s2)cc(N2CCN(CCO)CC2)n1 [Dasatinib] (partner 0.075 µM)
# Procedure, shortened: as §1
Cell Line,relative viability ([1]; first compound 0.005 µM),relative viability ([1]; first compound 0.01581 µM),relative viability ([1]; first compound 0.05 µM),relative viability ([1]; first compound 0.1581 µM),relative viability ([1]; first compound 0.5 µM),relative viability ([2]; first compound 0.02 µM),relative viability ([2]; first compound 0.2 µM),relative viability ([2]; first compound 0.6325 µM),relative viability ([2]; first compound 2 µM),relative viability (Sulindac + Tozasertib; first compound 0.08 µM),relative viability (Sulindac + Tozasertib; first compound 0.253 µM),relative viability (Sulindac + Tozasertib; first compound 0.8 µM),relative viability (Sulindac + Tozasertib; first compound 2.53 µM),relative viability (Sulindac + Tozasertib; first compound 8 µM),relative viability ([3]; first compound 0.02 µM),relative viability ([3]; first compound 0.2 µM),relative viability ([3]; first compound 0.6325 µM),relative viability ([3]; first compound 2 µM)
LC-2-ad,0.277,0.21,0.209,0.102,0.0993,0.258,0.286,0.282,0.272,0.382,0.451,0.374,0.391,0.46,0.785,0.354,0.328,0.209
LCLC-97TM1,0.185,0.111,0.186,0.149,0.117,0.146,0.218,0.165,0.176,0.231,0.289,0.217,0.163,0.247,0.79,0.978,0.837,0.745
LCLC-103H,0.405,0.238,0.336,0.247,0.213,0.481,0.413,0.464,0.384,0.439,0.512,0.508,0.47,0.48,0.493,0.417,0.326,0.251
LK-2,0.331,0.255,0.269,0.0688,0.0539,0.294,0.35,0.264,0.201,0.186,0.178,,,0.189,0.42,0.29,0.256,0.237
LOU-NH91,0.339,0.304,0.336,0.255,0.274,0.359,0.342,0.317,0.309,0.634,0.662,0.636,0.636,0.744,0.566,0.598,0.501,0.304
